Tests used:
[1] = Half life in phosphate buffered saline at pH 7.4 at 37 degC; type: physicochemical
glucuronidase = assay: Half life in phosphate buffered saline at pH 7 in presence of glucuronidase at 37 degC; type: ADME

Row | SMILES | half-life [1] [min] | half-life (glucuronidase) [min]
1 | Cc1cccc(C)c1OCC(=O)N[C@@H](Cc1ccccc1)[C@H](OC(=O)CCC(=O)NCCN1CCCCC1)C(=O)N1CSC(C)(C)[C@H]1C(=O)NC(C)(C)C | 12 | 
2 | CC[C@@]1(O)C(=O)OCc2c1cc1n(c2=O)Cc2cc3cc(OCc4ccc(O[C@@H]5O[C@H](C(=O)O)[C@@H](O)[C@H](O)[C@H]5O)c([N+](=O)[O-])c4)ccc3nc2-1 |  | 20

Source: ChEMBL document CHEMBL4177538, “Recent progress in prodrug design strategies based on generally applicable modifications” (Bioorg Med Chem Lett, 2017)
